Read-outs that look alike come from different tables or passages of the source.
Assays:
[1] = target: EZH2 Complex (Homo sapiens, UniProt Q15910); test: biochemical; parameters: Complex; protein methyltransferase selectivity panel, enzyme activity relative to DMSO controls, single concentration in duplicate; conditions: Substrate:=Core Histone
EZH2 Complex, sequence (Q15910 whole entry): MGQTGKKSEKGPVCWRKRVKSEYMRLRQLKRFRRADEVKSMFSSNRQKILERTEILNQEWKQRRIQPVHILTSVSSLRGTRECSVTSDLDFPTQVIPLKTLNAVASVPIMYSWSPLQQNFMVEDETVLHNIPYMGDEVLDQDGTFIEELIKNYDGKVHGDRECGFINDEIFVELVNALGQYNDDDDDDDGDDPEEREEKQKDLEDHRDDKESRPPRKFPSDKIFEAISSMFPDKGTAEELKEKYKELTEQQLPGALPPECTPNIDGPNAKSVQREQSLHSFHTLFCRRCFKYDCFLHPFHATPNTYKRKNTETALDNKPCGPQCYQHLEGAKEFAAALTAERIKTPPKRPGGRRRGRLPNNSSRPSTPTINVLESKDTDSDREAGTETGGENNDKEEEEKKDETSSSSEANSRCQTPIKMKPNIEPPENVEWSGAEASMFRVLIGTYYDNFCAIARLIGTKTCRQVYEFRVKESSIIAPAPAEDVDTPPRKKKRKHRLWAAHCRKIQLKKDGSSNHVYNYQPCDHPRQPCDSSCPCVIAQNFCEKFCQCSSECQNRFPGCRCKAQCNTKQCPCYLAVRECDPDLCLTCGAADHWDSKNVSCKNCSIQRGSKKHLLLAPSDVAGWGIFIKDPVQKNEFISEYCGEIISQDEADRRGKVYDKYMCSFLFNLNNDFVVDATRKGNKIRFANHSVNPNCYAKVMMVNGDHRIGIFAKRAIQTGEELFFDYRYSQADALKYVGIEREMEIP
EZH2 Complex, sequence (O75530 whole entry partner): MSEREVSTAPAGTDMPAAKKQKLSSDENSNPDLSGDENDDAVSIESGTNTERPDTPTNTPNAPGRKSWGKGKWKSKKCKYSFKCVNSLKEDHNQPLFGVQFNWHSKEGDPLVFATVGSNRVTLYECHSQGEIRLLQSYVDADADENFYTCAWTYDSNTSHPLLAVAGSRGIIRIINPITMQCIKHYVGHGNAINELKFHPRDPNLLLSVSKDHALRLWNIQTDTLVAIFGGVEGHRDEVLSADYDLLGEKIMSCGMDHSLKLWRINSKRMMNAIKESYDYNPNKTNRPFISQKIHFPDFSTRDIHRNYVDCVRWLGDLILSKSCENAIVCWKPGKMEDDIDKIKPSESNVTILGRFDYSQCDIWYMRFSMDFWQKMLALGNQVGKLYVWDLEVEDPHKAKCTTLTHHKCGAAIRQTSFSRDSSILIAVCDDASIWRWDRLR
EZH2 Complex, sequence (Q09028 whole entry partner): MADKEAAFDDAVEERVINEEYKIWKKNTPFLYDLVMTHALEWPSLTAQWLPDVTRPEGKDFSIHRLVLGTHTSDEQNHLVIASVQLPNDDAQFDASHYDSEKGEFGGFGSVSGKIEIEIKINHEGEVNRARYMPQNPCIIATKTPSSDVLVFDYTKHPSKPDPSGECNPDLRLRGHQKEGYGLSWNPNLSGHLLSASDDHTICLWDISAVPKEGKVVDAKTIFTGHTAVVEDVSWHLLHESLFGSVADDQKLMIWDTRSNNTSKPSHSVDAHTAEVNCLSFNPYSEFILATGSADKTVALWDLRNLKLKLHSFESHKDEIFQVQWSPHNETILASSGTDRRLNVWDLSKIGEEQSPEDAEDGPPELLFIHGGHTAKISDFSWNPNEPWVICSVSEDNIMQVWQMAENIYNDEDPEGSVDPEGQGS
EZH2 Complex, sequence (Q15022 whole entry partner): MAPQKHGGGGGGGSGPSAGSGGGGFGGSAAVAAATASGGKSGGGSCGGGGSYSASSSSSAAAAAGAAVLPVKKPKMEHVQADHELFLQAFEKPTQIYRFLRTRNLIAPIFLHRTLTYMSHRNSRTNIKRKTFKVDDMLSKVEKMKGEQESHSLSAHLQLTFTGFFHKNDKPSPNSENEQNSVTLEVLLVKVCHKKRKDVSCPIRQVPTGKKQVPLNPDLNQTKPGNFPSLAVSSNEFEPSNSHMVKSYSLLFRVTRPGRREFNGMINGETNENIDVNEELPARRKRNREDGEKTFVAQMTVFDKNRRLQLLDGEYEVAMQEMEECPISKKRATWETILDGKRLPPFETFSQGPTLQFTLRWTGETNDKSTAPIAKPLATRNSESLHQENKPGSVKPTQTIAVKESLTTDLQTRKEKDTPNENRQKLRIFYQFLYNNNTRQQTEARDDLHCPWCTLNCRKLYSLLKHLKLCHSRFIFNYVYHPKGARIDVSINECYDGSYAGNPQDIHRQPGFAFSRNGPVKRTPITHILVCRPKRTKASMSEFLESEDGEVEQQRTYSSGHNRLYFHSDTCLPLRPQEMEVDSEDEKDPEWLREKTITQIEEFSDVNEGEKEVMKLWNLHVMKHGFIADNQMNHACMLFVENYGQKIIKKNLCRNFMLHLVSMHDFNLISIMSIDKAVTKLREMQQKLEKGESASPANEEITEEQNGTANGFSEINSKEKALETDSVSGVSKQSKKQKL
EZH2 Complex, sequence (Q6ZN18 whole entry partner): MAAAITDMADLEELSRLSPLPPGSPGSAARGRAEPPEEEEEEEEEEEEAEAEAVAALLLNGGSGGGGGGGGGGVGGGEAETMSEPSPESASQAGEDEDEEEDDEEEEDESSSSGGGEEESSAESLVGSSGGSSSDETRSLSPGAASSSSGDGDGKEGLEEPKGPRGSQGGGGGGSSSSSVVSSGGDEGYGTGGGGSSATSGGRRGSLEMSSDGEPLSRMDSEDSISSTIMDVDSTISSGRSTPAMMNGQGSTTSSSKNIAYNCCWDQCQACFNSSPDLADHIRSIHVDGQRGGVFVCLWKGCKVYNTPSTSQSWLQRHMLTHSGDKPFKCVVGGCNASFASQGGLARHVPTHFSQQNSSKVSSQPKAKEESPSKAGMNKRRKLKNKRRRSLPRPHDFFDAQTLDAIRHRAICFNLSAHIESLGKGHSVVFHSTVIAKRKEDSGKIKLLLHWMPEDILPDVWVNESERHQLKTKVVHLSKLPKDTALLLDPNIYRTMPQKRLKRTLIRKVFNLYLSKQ
Protocol: (§1) We next assessed selectivity of MS67 against 22 protein methyltransferases (table S2) and a broad panel of common drug targets including 45 kinases (table S3) and 44 G protein–coupled receptors (GPCR), ion channels, and transporters (table S4). […] We subsequently determined that MS67 had moderate binding affinity (Ki = 1.0 ± 0.8 μM) to Sigma 2 receptor (fig. S10).

[2] = target: EZH1 Complex (Homo sapiens, UniProt Q92800); test: biochemical; parameters: Complex; protein methyltransferase selectivity panel, enzyme activity relative to DMSO controls, single concentration in duplicate; conditions: Substrate:=Core Histone
EZH1 Complex, sequence (Q92800 whole entry): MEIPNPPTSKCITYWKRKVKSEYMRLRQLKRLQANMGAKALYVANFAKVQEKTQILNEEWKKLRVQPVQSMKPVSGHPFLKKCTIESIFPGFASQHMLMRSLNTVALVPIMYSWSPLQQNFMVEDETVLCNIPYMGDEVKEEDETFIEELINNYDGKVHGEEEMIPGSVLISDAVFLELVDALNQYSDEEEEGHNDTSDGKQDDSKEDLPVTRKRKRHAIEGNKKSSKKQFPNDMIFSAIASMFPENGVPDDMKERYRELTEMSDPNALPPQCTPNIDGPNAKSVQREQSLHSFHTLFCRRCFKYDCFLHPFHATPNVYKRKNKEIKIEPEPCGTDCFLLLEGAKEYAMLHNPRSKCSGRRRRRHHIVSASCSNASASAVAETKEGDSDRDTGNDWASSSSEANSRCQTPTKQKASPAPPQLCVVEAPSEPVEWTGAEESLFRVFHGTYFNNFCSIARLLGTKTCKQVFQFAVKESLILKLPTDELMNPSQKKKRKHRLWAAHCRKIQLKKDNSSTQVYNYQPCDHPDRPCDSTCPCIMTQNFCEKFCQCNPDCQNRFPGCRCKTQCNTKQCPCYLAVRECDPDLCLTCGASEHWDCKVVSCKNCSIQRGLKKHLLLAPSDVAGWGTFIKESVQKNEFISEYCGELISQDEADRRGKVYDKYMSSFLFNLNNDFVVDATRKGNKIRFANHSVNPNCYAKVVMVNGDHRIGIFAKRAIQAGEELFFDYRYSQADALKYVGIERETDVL
EZH1 Complex, sequence (O75530 whole entry partner): as the sequence (O75530 whole entry partner) above
EZH1 Complex, sequence (Q09028 whole entry partner): as the sequence (Q09028 whole entry partner) above
EZH1 Complex, sequence (Q15022 whole entry partner): as the sequence (Q15022 whole entry partner) above
EZH1 Complex, sequence (Q6ZN18 whole entry partner): as the sequence (Q6ZN18 whole entry partner) above
Protocol: as §1

[3] = target: PRMT5/MEP50 Complex (Homo sapiens, UniProt O14744); test: biochemical; parameters: Complex; protein methyltransferase selectivity panel, enzyme activity relative to DMSO controls, single concentration in duplicate; conditions: Substrate:=Histone H2A
PRMT5/MEP50 Complex, sequence (O14744 whole entry): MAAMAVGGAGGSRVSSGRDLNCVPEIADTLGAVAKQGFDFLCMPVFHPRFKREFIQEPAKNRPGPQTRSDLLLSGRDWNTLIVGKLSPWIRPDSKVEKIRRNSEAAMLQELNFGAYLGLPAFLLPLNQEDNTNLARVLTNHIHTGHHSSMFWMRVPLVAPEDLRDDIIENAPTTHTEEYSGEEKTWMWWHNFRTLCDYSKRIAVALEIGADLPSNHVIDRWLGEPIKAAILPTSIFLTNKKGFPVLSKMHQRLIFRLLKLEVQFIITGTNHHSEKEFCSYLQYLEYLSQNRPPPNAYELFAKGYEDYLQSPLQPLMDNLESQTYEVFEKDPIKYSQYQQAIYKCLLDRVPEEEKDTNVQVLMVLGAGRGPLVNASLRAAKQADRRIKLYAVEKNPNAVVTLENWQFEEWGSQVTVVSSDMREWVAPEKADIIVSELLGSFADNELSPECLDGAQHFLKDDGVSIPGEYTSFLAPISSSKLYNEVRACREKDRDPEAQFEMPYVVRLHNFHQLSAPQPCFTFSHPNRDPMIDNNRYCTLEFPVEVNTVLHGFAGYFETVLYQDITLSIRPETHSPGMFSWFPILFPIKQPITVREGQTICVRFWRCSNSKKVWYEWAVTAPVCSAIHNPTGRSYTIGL
PRMT5/MEP50 Complex, sequence (Q9BQA1 whole entry partner): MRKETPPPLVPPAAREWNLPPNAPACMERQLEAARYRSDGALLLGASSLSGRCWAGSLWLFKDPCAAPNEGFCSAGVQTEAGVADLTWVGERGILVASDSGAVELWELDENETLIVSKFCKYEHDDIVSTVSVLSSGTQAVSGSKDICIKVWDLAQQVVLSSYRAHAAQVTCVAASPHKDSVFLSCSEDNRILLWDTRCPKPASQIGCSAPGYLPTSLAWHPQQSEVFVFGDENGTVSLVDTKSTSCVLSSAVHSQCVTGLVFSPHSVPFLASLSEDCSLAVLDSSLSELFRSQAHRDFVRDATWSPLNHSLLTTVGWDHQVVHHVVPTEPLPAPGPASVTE
Protocol: as §1

[4] = target: SET1b Complex (Homo sapiens, UniProt Q9UPS6); test: biochemical; parameters: gene SETD1B; complex; protein methyltransferase inhibition panel, single concentration, duplicate
Protocol: as §1

[5] = target: WDR5 (WD40 repeat domain protein 5) (Homo sapiens, UniProt P61964); test: ITC; […]-Å crystal structure of WDR5-MS67-VCB ternary complex; assay type: binding
[6] = target: T1, 5-HT6 (Homo sapiens, UniProt P50406); test: biochemical; parameters: GPCR, ion channel and transporter panel, per cent inhibition of binding, mean of four
T1 construct: gene HTR6
Protocol: as §1

[7] = target: T2, 5-HT2A (Homo sapiens, UniProt P28223); test: biochemical; parameters: GPCR, ion channel and transporter panel, per cent inhibition of binding, mean of four
T2 construct: gene HTR2A
Protocol: as §1

[8] = target: T3, M4 (Homo sapiens, UniProt P08173); test: biochemical; parameters: GPCR, ion channel and transporter panel, per cent inhibition of binding, mean of four
T3 construct: gene CHRM4
Protocol: as §1

[9] = target: T4, 5-HT1A (Homo sapiens, UniProt P08908); test: biochemical; parameters: GPCR, ion channel and transporter panel, per cent inhibition of binding, mean of four
T4 construct: gene HTR1A
Protocol: as §1

[10] = target: T5, 5-HT7A (Homo sapiens, UniProt P34969); test: biochemical; parameters: GPCR, ion channel and transporter panel, per cent inhibition of binding, mean of four
T5 construct: gene HTR7; isoform 7A
Protocol: as §1

[11] = target: T6, H3 (Homo sapiens, UniProt Q9Y5N1); test: biochemical; parameters: GPCR, ion channel and transporter panel, per cent inhibition of binding, mean of four
T6 construct: gene HRH3
Protocol: as §1

[12] = target: T7, SERT (Homo sapiens, UniProt P31645); test: biochemical; parameters: GPCR, ion channel and transporter panel, per cent inhibition of binding, mean of four
T7 construct: gene SLC6A4
Protocol: as §1

[13] = target: T8, D5 (Homo sapiens, UniProt P21918); test: biochemical; parameters: GPCR, ion channel and transporter panel, per cent inhibition of binding, mean of four
T8 construct: gene DRD5
Protocol: as §1

[14] = target: T9, H4 (Homo sapiens, UniProt Q9H3N8); test: biochemical; parameters: GPCR, ion channel and transporter panel, per cent inhibition of binding, mean of four
T9 construct: gene HRH4
Protocol: as §1

[15] = target: T10, NET (Homo sapiens, UniProt P23975); test: biochemical; parameters: GPCR, ion channel and transporter panel, per cent inhibition of binding, mean of four
T10 construct: gene SLC6A2
Protocol: as §1

[16] = target: T11, MOR (Homo sapiens, UniProt P35372); test: biochemical; parameters: GPCR, ion channel and transporter panel, per cent inhibition of binding, mean of four
T11 construct: gene OPRM1
Protocol: as §1

[17] = target: T12, M1 (Homo sapiens, UniProt P11229); test: biochemical; parameters: GPCR, ion channel and transporter panel, per cent inhibition of binding, mean of four
T12 construct: gene CHRM1
Protocol: as §1

[18] = target: T13, 5-HT1B (Homo sapiens, UniProt P28222); test: biochemical; parameters: GPCR, ion channel and transporter panel, per cent inhibition of binding, mean of four
T13 construct: gene HTR1B
Protocol: as §1

[19] = target: T14, Alpha2C (Homo sapiens, UniProt P18825); test: biochemical; parameters: GPCR, ion channel and transporter panel, per cent inhibition of binding, mean of four
T14 construct: gene ADRA2C
Protocol: as §1

[20] = target: T15, M2 (Homo sapiens, UniProt P08172); test: biochemical; parameters: GPCR, ion channel and transporter panel, per cent inhibition of binding, mean of four
T15 construct: gene CHRM2
Protocol: as §1

[21] = target: T16, DAT (Homo sapiens, UniProt Q01959); test: biochemical; parameters: GPCR, ion channel and transporter panel, per cent inhibition of binding, mean of four
T16 construct: gene SLC6A3
Protocol: as §1

[22] = target: T17, TrkA(h) (Homo sapiens, UniProt P04629); test: biochemical; parameters: kinase selectivity panel, activity as per cent of control, single concentration in duplicate; conditions: read-out: % of control remaining
T17 construct: gene NTRK1
Protocol: as §1

[23] = target: Met(h) (Homo sapiens, UniProt P08581); test: biochemical; parameters: kinase selectivity panel, activity as per cent of control, single concentration in duplicate; conditions: read-out: % of control remaining
Protocol: as §1

[24] = target: T18, IR(h) (Homo sapiens, UniProt P06213); test: biochemical; parameters: kinase selectivity panel, activity as per cent of control, single concentration in duplicate; conditions: read-out: % of control remaining
T18 construct: gene INSR
Protocol: as §1

[25] = read-out: Enzyme % Activity (relative to DMSO controls) / MS67 / 10 / Data 1:
[26] = read-out: Enzyme % Activity (relative to DMSO controls) / MS67 / 10 / Data 2:

Question: For `Cc1ncsc1-c1ccc([C@H](C)NC(=O)[C@@H]2C[C@@H](O)CN2C(=O)[C@@H](NC(=O)CNC(=O)c2ccc(F)c(-c3ccc(N4C[C@@H](C)N(C)[C@@H](C)C4)c(NC(=O)c4c[nH]c(=O)cc4C(F)(F)F)c3)c2)C(C)(C)C)cc1` [MS67], which remaining activity at 10 µM [1, 25] is on record?
Answer: 106%

Question: And the remaining activity at 10 µM [1, 26]?
Answer: 101%

Question: And the remaining activity at 10 µM [2, 25]?
Answer: 97.1%

Question: What about the remaining activity at 10 µM [2, 26] of the same compound?
Answer: 103%

Question: What about the remaining activity at 10 µM [3, 25] of the same compound?
Answer: 96.2%

Question: And the remaining activity at 10 µM [3, 26]?
Answer: 97.3%

Question: And the inhibition at 10 µM [4]?
Answer: < 10%

Question: What about the Kd [5] of the same compound?
Answer: 63 ± 10 nM

Question: And the inhibition at 1 µM [6]?
Answer: 13.7%

Question: And the inhibition at 1 µM [7]?
Answer: 11%

Question: What about the inhibition at 1 µM [8] of the same compound?
Answer: 30.9%

Question: And the inhibition at 1 µM [9]?
Answer: 14.3%

Question: What about the inhibition at 1 µM [10] of the same compound?
Answer: 12%

Question: And the inhibition at 1 µM [11]?
Answer: 21.1%

Question: What about the inhibition at 1 µM [12] of the same compound?
Answer: 8.01%

Question: And the inhibition at 1 µM [13]?
Answer: 22.1%

Question: And the inhibition at 1 µM [14]?
Answer: 21.9%

Question: And the inhibition at 1 µM [15]?
Answer: -8.91%

Question: And the inhibition at 1 µM [16]?
Answer: 21.7%

Question: What about the inhibition at 1 µM [17] of the same compound?
Answer: 43.6%

Question: And the inhibition at 1 µM [18]?
Answer: 5.37%

Question: What about the inhibition at 1 µM [19] of the same compound?
Answer: 1.35%

Question: And the inhibition at 1 µM [20]?
Answer: 31.1%

Question: What about the inhibition at 1 µM [21] of the same compound?
Answer: 40.8%

Question: What about the remaining activity at 1 µM [22] of the same compound?
Answer: 94%

Question: What about the remaining activity at 1 µM [23] of the same compound?
Answer: 88%

Question: What about the remaining activity at 1 µM [24] of the same compound?
Answer: 87%

— PMC8500670, “A selective WDR5 degrader inhibits acute myeloid leukemia in patient-derived mouse models” (Science translational medicine, 2021)
